Test results reported in US10251408B2, “Catechin function enhancement method” (KYUSHU UNIVERSITY, NATIONAL UNIVERSITY CORPORATION, priority 2014, dated 2019).

What was measured:
[1] = system: 3-hydroxy-3-methylglutaryl-CoA synthase (HMCGS); test: Liver HMCGS mRNA by real-time PCR in HF/HS diet-fed mice; assay type: in vivo, mouse; conditions: HF/HS diet-fed C57BL/6J mice; Yabukita 0.2% and/or eriodictyol 0.45 g/kg diet; 8 weeks; FIG. 6
Description: Male C57BL/6J mice at 12 weeks of age were preliminarily kept for 1 week and then divided into 5 groups such that the average body weight was equal in all groups, i.e., a control (AIN-93G-based diet) group, a HF/HS (high-fat high-sucrose diet) group, a Yabukita (0.2%) (HF/HS+Yabukita) group, an eriodictyol (HF/HS+eriodictyol) group, and a Yabukita+eriodictyol (HF/HS+Yabukita+eriodictyol) group. A feed supplemented with Yabukita (0.2%) and eriodictyol (0.45 g/kg diet) was given to the mice. The feed was given in an amount of 4 g/day and the mice were kept for 8 weeks under ad libitum drinking conditions. After being fasted for 16 hours, the mice were sacrificed by abdominal aortic puncture under isoflurane anesthesia. […] Yabukita and eriodictyol were examined for their effect on cholesterol metabolism-related gene expression in the liver of high-fat high-sucrose diet-fed obese model mice. C57BL/6J mice were preliminarily kept for 1 week and then divided into the respective groups such that the average body weight was equal in all groups. Each feed was given in an amount of 4 g/day and the mice were kept for 8 weeks under ad libitum drinking conditions. After being fasted for 16 hours, the mice were sacrificed by abdominal aortic puncture under isoflurane anesthesia.

[2] = system: Human multiple myeloma cell line U266; test: Anticancer effect, viable cells by trypan blue assay (24-well plates, FIG. 14-19); assay type: cell-based; conditions: 5 μM each, 96 hours
Method: Human multiple myeloma cell line U266 was subcultured and maintained in RPMI 1640 medium supplemented with 10% fetal bovine serum (FCS) under conditions of 37° C. and water vapor-saturated 5% CO2. The cells were maintained in the logarithmic growth phase. The RPMI 1640 medium used for culture was prepared as follows: per liter of ultrapure water, RPMI 1640 medium (10.4 g), HEPES (2.38 g), injectable penicillin G potassium (100,000 units), streptomycin sulfate injectable (100 mg) and NaHCO3 (2.0 g) were suspended and then filter-sterilized. Then, the RPMI 1640 medium was supplemented with FCS and used for cell culture. Per liter of ultrapure water, NaCl (8.0 g), KCl (0.2 g), Na2HPO4 (1.15 g) and KH2PO4 (0.2 g) were dissolved to prepare PBS, which was then sterilized in an autoclave.
Eriodictyol and structural analogs thereof, i.e., naringenin and hesperetin, as well as glycosides thereof, i.e., eriocitrin, naringin and hesperidin were each adjusted to 5 mM with 100% dimethyl sulfoxide (DMSO) and stored at −30° C. EGCG and (−)-gallocatechin gallate (GCG) were each adjusted to 5 mM with ultrapure water and stored at −30° C. EGCG 3″Me was adjusted to 5 mM with 10% DMSO dH2O and stored at −30° C.
U266 adjusted to 5×10^4 cells/mL in RPMI 1640 containing 1% FCS, SOD (5 U/mL) and catalase (200 U/mL) was seeded in 24-well plates and cultured for 96 hours in the presence of EGCG and analogs thereof or eriodictyol and analogs thereof added at a final concentration of 5 μM each. After culture, viable cells were counted by trypan blue assay.
For statistical processing of the experimental results, Student's test was used and P<0.05 was considered statistically significant in comparison with control data in the vehicle group.

[3] = system: tail suspension test-induced disuse amyotrophy in mice; test: Tail suspension test-induced disuse amyotrophy (quadriceps femoris weight); assay type: in vivo, mouse; conditions: C57BL/6J mice; 5 mg/kg intragastric once a day; tail suspension for 10 days from day 7; FIG. 4
Method: Male C57BL/6J mice at 12 weeks of age were divided into 5 groups such that the average body weight was equal in all groups, i.e., a GR (ground) group, a TS (tail suspension) group, an EGCG group, an eriodictyol group, and an EGCG+eriodictyol group. From the beginning of grouping, the GR and TS groups received physiological saline, the EGCG group received EGCG and the eriodictyol group received eriodictyol (5 mg/kg) by intragastric administration, while the EGCG+eriodictyol group received EGCG and eriodictyol (5 mg/kg) by intragastric administration through a sonde. For 7 days from the beginning of grouping, all the groups were kept under normal conditions, and the TS, EGCG, eriodictyol, and EGCG+eriodictyol groups were then subjected to a tail suspension test. After the tail suspension test for 10 days (at 17 days after initiation of the experiment), all the mice were sacrificed by abdominal aortic puncture under isoflurane anesthesia, and the quadriceps femoris was excised from each mouse and measured for its weight. Each sample was administered daily throughout the experimental period. […] At 10 days after starting the tail suspension test, the mice were sacrificed by abdominal aortic puncture under isoflurane anesthesia, and the quadriceps femoris was excised from each mouse and measured for its weight.

O=C1C[C@@H](c2ccc(O)c(O)c2)Oc2cc(O)cc(O)c21 [eriodictyol]
mRNA expression level of HMCGS in the liver [1]: no effect
enhancement of the anticancer effect (viable cells) of EGCG ([2]; combined with EGCG): remarkably enhance the anticancer effect
enhancement of the anticancer effect (viable cells) of EGCG 3″Me ([2]; combined with EGCG 3″Me): remarkably enhance the anticancer effect
enhancement of the anticancer effect (viable cells) of GCG ([2]; combined with GCG (gallocatechin gallate)): remarkably enhance the anticancer effect
effect on amyotrophy (quadriceps femoris weight) [3]: no effect on amyotrophy
